{"source": "patent US10172810B2", "about": "(priority 2003, dated 2019)", "origin": "cited, not measured here", "conditions": "pH 6.8"}
{"smiles": "CN1CCCC1c1cccnc1", "note": "(stereo not shown) [nicotine]", "values": [{"measurement": "nicotine in the free base form", "value": "about 10%"}]}
